US20040005342A1, “Topical administration of ascorbic acid to reinforce the cohesion of the dermo-epidermal junction” (SOCIETE L'OREAL S.A., priority 2002, published 2004)

Key:
Format in all cases: cell-based, human
tenascin = experiment: Immunofluorescence of tenascin in reconstructed skin sections
[1] = system: fibroblasts in the lattice of reconstructed skin; experiment: Reconstructed skin grown with vitamin C in the culture medium: number of fibroblasts; details: vitamin C in culture medium throughout the phase of emersion
From the text: This increase is associated with a greater production of certain proteins of the extracellular matrix, in particular in the sub-epidermal zone. The most spectacular results are found in this region of the dermo-epidermal junction, with a more perpendicular arrangement of the basal keratinocytes and an increased synthesis of major components of the basal membrane, for instance tenascin and collagen VII.

collagen VII = experiment: Immunofluorescence of collagen VII in reconstructed skin sections
[2] = reconstructed skin, vitamin CPMg 2.8′10^−4 M, 7-day emersion phase, × control

`O=C1O[C@H]([C@@H](O)CO)C([O-])=C1OP(=O)([O-])[O-].O=C1O[C@H]([C@@H](O)CO)C([O-])=C1OP(=O)([O-])[O-].[Mg+2].[Mg+2].[Mg+2]` [Vitamin C, magnesium ascorbyl phosphate] was tested, and the “Intensity and thickness of the zone of tenascin fluorescence (dermo-epidermal junction and superficial dermis), versus sample without vitamin C” value (tenascin; microscopic observation, FIG. 2) was “much larger”, the “Tenascin fluorescence intensity/unit of length” value (tenascin; reconstructed skin, vitamin CPMg 2.8′10^−4 M during 7-day emersion phase, image analysis, standardized to identical length of dermo-epidermal junction, control 6.4) was 11.54 arbitrary units and the “Tenascin fluorescence intensity/unit of length, factor versus control” value (tenascin; [2]) was 1.80. The “Number of fibroblasts in the lattice” value [1] was “very large increase”, the “Intensity and thickness of the zone of collagen VII fluorescence at the dermo-epidermal junction, versus sample without vitamin C” value (collagen VII; microscopic observation, FIG. 1) was “much greater” and the “Collagen VII fluorescence intensity/unit of length” value (collagen VII; reconstructed skin, vitamin CPMg 2.8′10^−4 M during 7-day emersion phase, image analysis, normalized to identical length of dermo-epidermal junction, control 1.35) was 2.50 arbitrary units. The “Collagen VII fluorescence intensity/unit of length, factor versus control” value (collagen VII; [2]) was 1.85.
